Laboratory results reported in the NIST ThermoML archive (doi:10.1016/j.tca.2013.05.030).

Assay: mn = molality of the nth substance listed, in mol/kg
Conditions: 101 kPa, Liquid; for viscosity: Capillary tube (Ostwald / Ubbelohde) method; for mass density: Pycnometric method; for speed of sound: Sing-around technique in a fixed-path interferometer

CC(C)Cc1ccc(C(C)C(=O)[O-])cc1.[Na+] (stereo not given) [sodium ibuprofen] + O
Conditions	mass density [kg/m3]	speed of sound [m/s]	viscosity [mPa·s]
298.15 K, m1 = 0.1048	1001.4	1512.8	0.973
298.15 K, m1 = 0.1525	1003.2	1518.4	1.007
298.15 K, m1 = 0.2231	1005.8	1525.6	1.07
298.15 K, m1 = 0.3179	1009.1	1533.2	1.173
298.15 K, m1 = 0.3721	1010.9	1536.4	1.242
298.15 K, m1 = 0.4422	1013.1	1540	1.342
298.15 K, m1 = 0.4678	1013.9	1540.8	1.381
303.15 K, m1 = 0.1048	999.9	1523.6	0.867
303.15 K, m1 = 0.1525	1001.7	1528.4	0.897
303.15 K, m1 = 0.2231	1004.3	1534.4	0.953
303.15 K, m1 = 0.3179	1007.5	1540.8	1.043
303.15 K, m1 = 0.3721	1009.3	1543.2	1.104
303.15 K, m1 = 0.4422	1011.5	1546.4	1.194
303.15 K, m1 = 0.4678	1012.3	1547.2	1.228
308.15 K, m1 = 0.1048	998.2	1532	0.78
308.15 K, m1 = 0.1525	1000	1536.4	0.808
308.15 K, m1 = 0.2231	1002.5	1542	0.857
308.15 K, m1 = 0.3179	1005.7	1548	0.937
308.15 K, m1 = 0.3721	1007.4	1550.8	0.992
308.15 K, m1 = 0.4422	1009.6	1553.6	1.072
308.15 K, m1 = 0.4678	1010.4	1554.4	1.104
313.15 K, m1 = 0.1048	996.3	1539.2	0.707
313.15 K, m1 = 0.1525	998	1542.8	0.732
313.15 K, m1 = 0.2231	1000.5	1547.6	0.777
313.15 K, m1 = 0.3179	1003.6	1552.8	0.848
313.15 K, m1 = 0.3721	1005.3	1555.2	0.898
313.15 K, m1 = 0.4422	1007.4	1557.2	0.969
313.15 K, m1 = 0.4678	1008.1	1558	0.997

O [water] + CC(C)Cc1ccc(C(C)C(=O)[O-])cc1.[Na+]
Conditions	speed of sound [m/s]
313.15 K, m2 = 0	1528.8
